The first experiment deals with T1, mGluR5 receptor (Sus scrofa, UniProt I3LUI7).
T1 construct: 450 μg of protein from brain homogenate with 5 nM ^3[H]-MPEP; from tissue; host or cells: pig brain halves without medulla, cerebellum and pons
T1 sequence (I3LUI7 19-1212): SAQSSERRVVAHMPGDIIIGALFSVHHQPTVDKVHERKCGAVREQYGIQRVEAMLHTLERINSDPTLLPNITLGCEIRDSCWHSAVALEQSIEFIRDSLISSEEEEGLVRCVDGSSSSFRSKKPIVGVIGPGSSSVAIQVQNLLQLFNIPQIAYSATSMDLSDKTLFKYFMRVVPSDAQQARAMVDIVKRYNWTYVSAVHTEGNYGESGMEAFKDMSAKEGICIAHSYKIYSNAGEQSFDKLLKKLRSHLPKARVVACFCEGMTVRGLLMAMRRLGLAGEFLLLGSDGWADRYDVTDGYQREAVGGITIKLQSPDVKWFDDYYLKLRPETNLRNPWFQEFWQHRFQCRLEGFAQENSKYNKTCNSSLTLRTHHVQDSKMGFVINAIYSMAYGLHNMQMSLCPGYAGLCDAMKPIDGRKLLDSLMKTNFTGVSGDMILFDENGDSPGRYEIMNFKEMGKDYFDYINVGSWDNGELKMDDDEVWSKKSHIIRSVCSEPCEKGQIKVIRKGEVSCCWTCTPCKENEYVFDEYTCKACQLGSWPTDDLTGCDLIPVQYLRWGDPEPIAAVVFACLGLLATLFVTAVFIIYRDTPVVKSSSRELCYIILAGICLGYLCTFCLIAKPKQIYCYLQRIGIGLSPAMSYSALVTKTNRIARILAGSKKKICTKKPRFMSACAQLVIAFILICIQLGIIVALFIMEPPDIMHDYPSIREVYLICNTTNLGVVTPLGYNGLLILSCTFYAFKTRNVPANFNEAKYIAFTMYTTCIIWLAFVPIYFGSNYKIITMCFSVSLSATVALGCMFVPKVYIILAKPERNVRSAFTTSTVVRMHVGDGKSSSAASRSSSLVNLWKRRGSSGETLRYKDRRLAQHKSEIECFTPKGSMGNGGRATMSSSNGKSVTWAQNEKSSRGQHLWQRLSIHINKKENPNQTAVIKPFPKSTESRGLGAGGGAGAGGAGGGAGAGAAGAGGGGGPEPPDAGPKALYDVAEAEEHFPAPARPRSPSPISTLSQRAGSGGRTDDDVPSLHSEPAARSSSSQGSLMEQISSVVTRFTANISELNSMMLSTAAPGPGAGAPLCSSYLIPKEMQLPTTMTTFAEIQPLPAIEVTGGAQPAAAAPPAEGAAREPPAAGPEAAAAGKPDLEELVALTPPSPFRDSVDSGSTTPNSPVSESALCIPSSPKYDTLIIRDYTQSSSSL
The experiment is described as follows: [3H]-MPEP mGluR5 receptor binding assay (pig brain homogenate). The conditions noted are these: 10 μM compound, 5 nM [3H]-MPEP. A digest of the protocol:
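Compounds at 10 μM competed with 5 nM [3H]-MPEP for binding to pig brain membranes (450 μg protein) for 60 min at room temperature in pH 8.0 Hepes buffer. Bound radioactivity was collected on glass-fibre filters and read by β-counting, with 10 μM unlabelled MPEP giving non-specific binding.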
As to `O=S(=O)(c1c(F)c(F)c(F)c(F)c1F)N(Cc1cccc(-c2cc(F)c3ncnc(NC4CC4)c3c2)c1)C1CC1` [Example 761, N-cyclopropyl-N-(3-(4-(cyclopropylamino)-8-fluoroquinazolin-6-yl)benzyl)-2,3,4,5,6-pentafluorobenzole sulfonamide], the “% Inhibition of mGluR5 Receptor (pig) [^3H]-MPEP Bond at 10 μM” value (“% Inhibition of mGluR5 Receptor (pig)” below) was found to be 45%.

`O=C(c1ccno1)N(Cc1cc(-c2ccc3ncnc(NC4CC4)c3c2)ccc1Cl)C1CC1` [Example 762, N-(2-chloro-5-(4-(cyclopropylamino)quinazolin-6-yl)benzyl)-N-cyclopropyl isoxazole-5-carboxamide]: the “% Inhibition of mGluR5 Receptor (pig)” value is 91%.

On to `O=C(c1ccncc1)N(Cc1cc(-c2ccc3ncnc(NC4CC4)c3c2)ccc1Cl)C1CC1` [Example 763, N-(2-chloro-5-(4-(cyclopropylamino)quinazolin-6-yl)benzyl)-N-cyclopropyl isonicotinamide], for which the “% Inhibition of mGluR5 Receptor (pig)” value was 86%.

`CS(=O)(=O)N(Cc1cc(-c2ccc3ncnc(NC4CC4)c3c2)ccc1Cl)C1CC1` [Example 764, N-(2-chloro-5-(4-(cyclopropylamino)quinazolin-6-yl)benzyl)-N-cyclopropyl methane sulfonamide]: the “% Inhibition of mGluR5 Receptor (pig)” value is 87%.

On to `O=C(c1cccnc1)N(Cc1cc(-c2ccc3ncnc(NC4CC4)c3c2)ccc1Cl)C1CC1` [Example 770, N-(2-chloro-5-(4-(cyclopropylamino)quinazolin-6-yl)benzyl)-N-cyclopropyl nicotinamide], for which the “% Inhibition of mGluR5 Receptor (pig)” value stood at 84%.

The same experiment, now with this note: 10 μM compound, 5 nM [3H]-MPEP, read-out: % Inhibition of mGluR5 Receptor (pig) [^3H]-MPEP Bond at 10 μM.
The inhibition is the percentage by which the read-out fell short of the control. In the case of `CN(C)CC(=O)N(Cc1cc(-c2ccc3ncnc(NC4CC4)c3c2)ccc1Cl)C1CC1` [Example 733, N-(2-chloro-5-(4-(cyclopropylamino)quinazolin-6-yl)benzyl)-N-cyclopropyl-2-(dimethylamino)acetamide], the inhibition at 10 µM is 39%.

For `O=S(=O)(c1cccs1)N(Cc1cc(-c2ccc3ncnc(NC4CC4)c3c2)ccc1Cl)C1CC1` [Example 734, N-(2-chloro-5-(4-(cyclopropylamino)quinazolin-6-yl)benzyl)-N-cyclopropylthiophene-2-sulfonamide], the inhibition at 10 µM was determined as 91%.

Take `O=C(c1ccc(C(F)(F)F)cc1F)N(Cc1cc(-c2ccc3ncnc(NC4CC4)c3c2)ccn1)C1CC1` [Example 735, N-cyclopropyl-N-((4-(4-(cyclopropylamino)quinazolin-6-yl)pyridin-2-yl)methyl)-2-fluoro-4-(trifluoromethyl)benzamide]: the inhibition at 10 µM stood at 72%.

With `O=C(c1ccncc1)N(Cc1cccc(-c2cc(F)c3ncnc(NC4CC4)c3c2)c1)C1CC1` [Example 736, N-cyclopropyl-N-(3-(4-(cyclopropylamino)-8-fluoroquinazolin-6-yl)benzyl)isonicotinamide], the inhibition at 10 µM turned out to be 91%.

Regarding `Cc1cc2ncnc(NC3CC3)c2cc1-c1cccc(CN(C2CC2)S(=O)(=O)c2cccs2)c1` [Example 737, N-cyclopropyl-N-(3-(4-(cyclopropylamino)-7-methylquinazolin-6-yl)benzyl)thiophene-2-sulfonamide], the inhibition at 10 µM amounted to 74%.

Consider `O=C(c1ccc(C(F)(F)F)cc1F)N(Cc1cccc(-c2cc(F)c3ncnc(NC4CC4)c3c2)c1)C1CC1` [Example 738, N-cyclopropyl-N-(3-(4-(cyclopropylamino)-8-fluoroquinazolin-6-yl)benzyl)-2-fluoro-4-(trifluoromethyl)benzamide], for which the inhibition at 10 µM came to 90%.

`CN(C)CC(=O)N(Cc1cc(-c2ccc3ncnc(NC4CC4)c3c2)ccn1)C1CC1` [Example 739, N-cyclopropyl-N-((4-(4-(cyclopropylamino)quinazolin-6-yl)pyridin-2-yl)methyl)-2-(dimethylamino)acetamide]: the inhibition at 10 µM stood at 47%.

With `O=C(c1ccccc1C(F)(F)F)N(Cc1cc(-c2ccc3ncnc(NC4CC4)c3c2)ccc1Cl)C1CC1` [Example 740, N-(2-chloro-5-(4-(cyclopropylamino)quinazolin-6-yl)benzyl)-N-cyclopropyl-2-(trifluoromethyl)benzamide], the inhibition at 10 µM worked out at 85%.

As for `O=C(C1CCCCC1)N(Cc1cc(-c2ccc3ncnc(NC4CC4)c3c2)ccc1Cl)C1CC1` [Example 741, N-(2-chloro-5-(4-(cyclopropylamino)quinazolin-6-yl)benzyl)-N-cyclopropylcyclohexane carboxamide], the inhibition at 10 µM stood at 37%.

In the case of `O=S(=O)(c1cccc2cccnc12)N(Cc1cc(-c2ccc3ncnc(NC4CC4)c3c2)ccc1Cl)C1CC1` [Example 742, N-(2-chloro-5-(4-(cyclopropylamino)quinazolin-6-yl)benzyl)-N-cyclopropylquinoline-8-sulfonamide], the inhibition at 10 µM was determined as 69%.

For the molecule `COCC(=O)N(Cc1cccc(-c2cc(F)c3ncnc(NC4CC4)c3c2)c1)C1CC1` [Example 744, N-cyclopropyl-N-(3-(4-(cyclopropylamino)-8-fluoroquinazolin-6-yl)benzyl)-2-methoxyacetamide], the inhibition at 10 µM came to 90%.

For `Cc1cc2ncnc(NC3CC3)c2cc1-c1cccc(CN(C(=O)c2ccno2)C2CC2)c1` [Example 745, N-cyclopropyl-N-(3-(4-(cyclopropylamino)-7-methylquinazolin-6-yl)benzyl)isoxazole-5-carboxamide], the inhibition at 10 µM turned out to be 52%.

For `O=C(c1ccco1)N(Cc1cc(-c2ccc3ncnc(NC4CC4)c3c2)ccc1Cl)C1CC1` [Example 746, N-(2-chloro-5-(4-(cyclopropylamino)quinazolin-6-yl)benzyl)-N-cyclopropylfuran-2-carboxamide], the inhibition at 10 µM was determined as 93%.

Regarding `O=C(c1cc(Cl)cc(Cl)c1)N(Cc1cc(-c2ccc3ncnc(NC4CC4)c3c2)ccc1Cl)C1CC1` [Example 747, 3,5-dichloro-N-(2-chloro-5-(4-(cyclopropylamino)quinazolin-6-yl)benzyl)-N-cyclopropylbenzamide], the inhibition at 10 µM amounted to 52%.

As for `O=C(Cc1ccccc1)N(Cc1cc(-c2ccc3ncnc(NC4CC4)c3c2)ccc1Cl)C1CC1` [Example 748, N-(2-chloro-5-(4-(cyclopropylamino)quinazolin-6-yl)benzyl)-N-cyclopropyl-2-phenylacetamide], the inhibition at 10 µM stood at 66%.

Regarding `O=C(c1ccccc1C(F)(F)F)N(Cc1cc(-c2ccc3ncnc(NC4CC4)c3c2)ccn1)C1CC1` [Example 749, N-cyclopropyl-N-((4-(4-(cyclopropylamino)quinazolin-6-yl)pyridin-2-yl)methyl)-2-(trifluoromethyl)benzamide], the inhibition at 10 µM came to 65%.

Regarding `O=C(c1cc(Cl)cc(Cl)c1)N(Cc1cc(-c2ccc3ncnc(NC4CC4)c3c2)ccn1)C1CC1` [Example 750, 3,5-dichloro-N-cyclopropyl-N-((4-(4-(cyclopropylamino)quinazolin-6-yl)pyridin-2-yl)methyl)benzamide], the inhibition at 10 µM turned out to be 42%.

As to `CN(C)CC(=O)N(Cc1cccc(-c2cc(F)c3ncnc(NC4CC4)c3c2)c1)C1CC1` [Example 751, N-cyclopropyl-N-(3-(4-(cyclopropylamino)-8-fluoroquinazolin-6-yl)benzyl)-2-(dimethylamino)acetamide], the inhibition at 10 µM is 53%.

Turning to `O=C(c1c(F)c(F)c(F)c(F)c1F)N(Cc1cccc(-c2cc(F)c3ncnc(NC4CC4)c3c2)c1)C1CC1` [Example 752, N-cyclopropyl-N-(3-(4-(cyclopropylamino)-8-fluoroquinazolin-6-yl)benzyl)-2,3,4,5,6-pentafluorobenzamide], the inhibition at 10 µM was found to be 62%.

For `O=C(c1cccs1)N(Cc1cc(-c2ccc3ncnc(NC4CC4)c3c2)ccc1Cl)C1CC1` [Example 754, N-(2-chloro-5-(4-(cyclopropylamino)quinazolin-6-yl)benzyl)-N-cyclopropylthiophene-2-carboxamide], the inhibition at 10 µM came to 95%.

For `O=C(c1ccccn1)N(Cc1cc(-c2ccc3ncnc(NC4CC4)c3c2)ccc1Cl)C1CC1` [Example 755, N-(2-chloro-5-(4-(cyclopropylamino)quinazolin-6-yl)benzyl)-N-cyclopropylpicolinamide], the inhibition at 10 µM was determined as 78%.

Take `O=C(CCc1ccccc1)N(Cc1cc(-c2ccc3ncnc(NC4CC4)c3c2)ccc1Cl)C1CC1` [Example 756, N-(2-chloro-5-(4-(cyclopropylamino)quinazolin-6-yl)benzyl)-N-cyclopropyl-3-phenylpropanamide]: the inhibition at 10 µM came out at 69%.

Turning to `Cc1nc(C(=O)N(Cc2cccc(-c3cc4c(NC5CC5)ncnc4cc3C)c2)C2CC2)cs1` [Example 759, N-cyclopropyl-N-(3-(4-(cyclopropylamino)-7-methylquinazolin-6-yl)benzyl)-2-methylthiazole-4-carboxamide], the inhibition at 10 µM was 83%.

For the molecule `Cc1cc(C(=O)N(Cc2cccc(-c3cc(F)c4ncnc(NC5CC5)c4c3)c2)C2CC2)n(C)n1` [Example 760, N-cyclopropyl-N-(3-(4-(cyclopropylamino)-8-fluoroquinazolin-6-yl)benzyl)-1,3-dimethyl-1H-pyrazole-5-carboxamide], the inhibition at 10 µM was 93%.

Regarding `Cc1cc2ncnc(NC3CC3)c2cc1-c1cccc(CN(C(=O)c2c(F)c(F)c(F)c(F)c2F)C2CC2)c1` [Example 768, N-cyclopropyl-N-(3-(4-(cyclopropylamino)-7-methylquinazolin-6-yl)benzyl)-2,3,4,5,6-pentafluorobenzamide], the inhibition at 10 µM amounted to 88%.

As for `Cc1nc(C(=O)N(Cc2cc(-c3ccc4ncnc(NC5CC5)c4c3)ccc2Cl)C2CC2)cs1` [Example 769, N-(2-chloro-5-(4-(cyclopropylamino)quinazolin-6-yl)benzyl)-N-cyclopropyl-2-methylthiazole-4-carboxamide], the inhibition at 10 µM amounted to 83%.

These data come from patent publication US20090069320A1, “Substituted 4-Amino-Quinazoline Compounds with Metabotropic Glutamate Receptor Regulating Activity and Uses Thereof” (Gruenenthal GmbH, priority 2006, published 2009).
